Assay results from US10954225B2, “Selective NR2B antagonists” (Bristol-Myers Squibb Company, priority 2015, dated 2021).

What was measured:
[1] = molecular target: NR2B-subtype NMDA receptors (Rattus norvegicus (Rat), UniProt P35439+Q00960); experiment: Radioligand binding assay (3H Ro 25-6981 competition, rat forebrain membranes); details: 3H Ro 25-6981 (4 nM)
Description: Radioligand Binding Assay.
Binding experiments to determine binding to NR2B-subtype NMDA receptors were performed on forebrains of 8-10 weeks old male Sprague Dawley rats (Harlan, Netherlands) using ^3H Ro 25-6981 (Mutel V; Buchy D; Klingelschmidt A; Messer J; Bleuel Z; Kemp J A; Richards J G. Journal of Neurochemistry, 1998, 70(5):2147-2155. Rats were decapitated without anesthesia using a Guillotine (approved by animal ethics committee) and the harvested brains were snap-frozen and stored at −80° C. for 3-6 months for membrane preparation.
For membrane preparation, rat forebrains were thawed on ice for 20 minutes in homogenization buffer composed of 50 mM KH2PO4 (pH adjusted to 7.4 with KOH), 1 mM EDTA, 0.005% Triton X 100 and protease inhibitor cocktail (Sigma Aldrich). Thawed brains were homogenized using a Dounce homogenizer and centrifuged at 48000×g for 20 min. The pellet was resuspended in cold buffer and homogenized again using a Dounce homogenizer. Subsequently, the homogenate was aliquoted, snap-frozen and stored at −80° C. for not more than 3-4 months.
To perform the competition binding assay, thawed membrane homogenate was added to each well of a 96-well plate (20 μg/well). […] The filter plates were dried at 50° C. for 20 mins, incubated with microscint 20 for 10 minutes and finally, the counts were read on TopCount (Perkin Elmer).

mice = experiment: Mouse Forced Swim Test (mFST); format: in vivo; details: 1 mg/Kg i.v., 15 min before swim session
Description: Mouse Forced Swim Test (mFST).
Forced Swim Test (FST) is an animal model used to assess antidepressant compounds in preclinical studies. The FST was performed similar to the method of Porsolt et al. with modifications (Porsolt R D, Bertin A, Jalfre M. Behavioral despair in mice: a primary screening test for antidepressants. Arch Int Pharmacodyn Ther 1977; 229:327-36). In this paradigm, mice are forced to swim in an inescapable cylinder filled with water. Under these conditions, mice will initially try to escape and eventually develop immobility behavior; this behavior is interpreted as a passive stress-coping strategy or depression-like behavior. […] The duration of immobility was evaluated during the total 6 min of the test and expressed as duration (sec) of immobility. […] All testing sessions were recorded with a video camera (Sony Handicam, Model: DCR-HC38E; PAL) and scoring was done using the Forced Swim Scan, Version 2.0 software (Clever Systems Inc., Reston, Va., USA; see Hayashi E, Shimamura M, Kuratani K, Kinoshita M, Hara H. Automated experimental system capturing three behavioral components during murine forced swim test. Life Sci. 2011 Feb. 28; 88(9-10):411-7 and Yuan P, Tragon T, Xia M, Leclair C A, Skoumbourdis A P, Zheng W, Thomas C J, Huang R, Austin C P, Chen G, Guitart X. Phosphodiesterase 4 inhibitors enhance sexual pleasure-seeking activity in rodents. […]

[2] = molecular target: brain-resident NR2B-subtype receptors (Mus musculus (Mouse), UniProt P35438+Q01097); experiment: Ex vivo occupancy assay; format: in vivo; details: animals after dosing; no dose stated
Sequence of brain-resident NR2B-subtype receptors (Q01097 27-1482, other chains not shown): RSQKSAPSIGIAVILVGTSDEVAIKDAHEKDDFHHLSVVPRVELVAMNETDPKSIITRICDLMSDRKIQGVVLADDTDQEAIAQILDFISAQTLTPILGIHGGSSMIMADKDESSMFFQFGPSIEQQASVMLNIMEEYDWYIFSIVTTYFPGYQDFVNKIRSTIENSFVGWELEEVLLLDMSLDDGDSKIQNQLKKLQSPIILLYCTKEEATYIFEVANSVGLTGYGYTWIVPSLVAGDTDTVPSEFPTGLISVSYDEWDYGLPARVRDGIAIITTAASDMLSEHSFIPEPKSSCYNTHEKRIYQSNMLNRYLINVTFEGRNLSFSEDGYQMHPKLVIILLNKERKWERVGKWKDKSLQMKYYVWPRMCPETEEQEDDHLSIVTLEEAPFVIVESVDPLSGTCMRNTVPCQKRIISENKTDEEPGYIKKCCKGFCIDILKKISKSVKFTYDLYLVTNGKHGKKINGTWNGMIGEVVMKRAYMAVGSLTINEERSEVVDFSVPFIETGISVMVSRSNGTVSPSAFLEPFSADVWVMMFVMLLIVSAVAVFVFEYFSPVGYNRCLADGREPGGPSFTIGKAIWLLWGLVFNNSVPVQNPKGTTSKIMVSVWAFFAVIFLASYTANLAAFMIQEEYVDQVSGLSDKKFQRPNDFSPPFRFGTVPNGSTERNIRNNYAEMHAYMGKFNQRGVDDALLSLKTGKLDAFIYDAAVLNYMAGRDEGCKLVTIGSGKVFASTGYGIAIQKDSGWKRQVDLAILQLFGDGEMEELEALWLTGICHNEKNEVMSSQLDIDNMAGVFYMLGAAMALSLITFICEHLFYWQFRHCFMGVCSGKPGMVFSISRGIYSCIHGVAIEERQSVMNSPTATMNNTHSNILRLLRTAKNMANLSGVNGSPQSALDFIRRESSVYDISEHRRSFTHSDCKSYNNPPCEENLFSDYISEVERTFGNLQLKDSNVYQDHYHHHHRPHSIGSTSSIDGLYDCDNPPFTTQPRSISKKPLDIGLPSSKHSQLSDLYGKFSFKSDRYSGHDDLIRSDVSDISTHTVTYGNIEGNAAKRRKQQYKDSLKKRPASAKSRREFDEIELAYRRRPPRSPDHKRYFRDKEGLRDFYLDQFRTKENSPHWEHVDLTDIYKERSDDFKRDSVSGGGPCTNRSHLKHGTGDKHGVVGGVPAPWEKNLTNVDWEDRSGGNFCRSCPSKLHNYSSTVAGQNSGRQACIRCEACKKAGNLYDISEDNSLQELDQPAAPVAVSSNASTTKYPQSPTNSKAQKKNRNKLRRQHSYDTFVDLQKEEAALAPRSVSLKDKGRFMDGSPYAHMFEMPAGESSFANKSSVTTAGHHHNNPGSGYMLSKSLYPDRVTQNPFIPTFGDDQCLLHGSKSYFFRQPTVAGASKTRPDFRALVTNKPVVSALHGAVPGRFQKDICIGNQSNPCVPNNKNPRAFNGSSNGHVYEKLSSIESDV
Description: 7-9 weeks old male CD-1 mice were dosed intravenously in a vehicle consisting of 10% dimethylacetamide, 40% PEG-400, 30% hydroxypropyl betacyclodextrin, and 30% water with experimental compounds and the forebrains were harvested 15 minutes post-dosing by decapitation. The brain samples were immediately snap-frozen and stored at −80° C. On the following day, the dosed brain samples were thawed on ice for 15-20 minutes followed by homogenization using Polytron for 10 seconds in cold homogenization buffer composed of 50 mM KH2PO4 (pH adjusted to 7.4 with KOH), 1 mM EDTA, 0.005% Triton X 100 and protease inhibitor cocktail (Sigma Aldrich). The crude homogenates were further homogenized using a Dounce homogenizer and the homogenized membrane aliquots from all animals were flash-frozen and stored at −80° C. until further use. The whole homogenization process was performed on ice. For determining occupancy, the membrane homogenates were first thawed on ice and then needle-homogenized using a 25 gauge needle. The homogenized membrane (6.4 mg/ml) was added to a 96-well plate followed by addition of ^3H Ro 25-6981 (6 nM). […] The filter plates were dried at 50° C. for 20 mins, incubated with microscint 20 for 10 minutes and read on TopCount (Perkin Elmer). […] Non-specific binding was determined using 10 μM Ro 25-6981 added to the wells containing membrane homogenates from vehicle-dosed animals. […]

Sequence of NR2B-subtype NMDA receptors (Q00960 27-1482, other chains not shown): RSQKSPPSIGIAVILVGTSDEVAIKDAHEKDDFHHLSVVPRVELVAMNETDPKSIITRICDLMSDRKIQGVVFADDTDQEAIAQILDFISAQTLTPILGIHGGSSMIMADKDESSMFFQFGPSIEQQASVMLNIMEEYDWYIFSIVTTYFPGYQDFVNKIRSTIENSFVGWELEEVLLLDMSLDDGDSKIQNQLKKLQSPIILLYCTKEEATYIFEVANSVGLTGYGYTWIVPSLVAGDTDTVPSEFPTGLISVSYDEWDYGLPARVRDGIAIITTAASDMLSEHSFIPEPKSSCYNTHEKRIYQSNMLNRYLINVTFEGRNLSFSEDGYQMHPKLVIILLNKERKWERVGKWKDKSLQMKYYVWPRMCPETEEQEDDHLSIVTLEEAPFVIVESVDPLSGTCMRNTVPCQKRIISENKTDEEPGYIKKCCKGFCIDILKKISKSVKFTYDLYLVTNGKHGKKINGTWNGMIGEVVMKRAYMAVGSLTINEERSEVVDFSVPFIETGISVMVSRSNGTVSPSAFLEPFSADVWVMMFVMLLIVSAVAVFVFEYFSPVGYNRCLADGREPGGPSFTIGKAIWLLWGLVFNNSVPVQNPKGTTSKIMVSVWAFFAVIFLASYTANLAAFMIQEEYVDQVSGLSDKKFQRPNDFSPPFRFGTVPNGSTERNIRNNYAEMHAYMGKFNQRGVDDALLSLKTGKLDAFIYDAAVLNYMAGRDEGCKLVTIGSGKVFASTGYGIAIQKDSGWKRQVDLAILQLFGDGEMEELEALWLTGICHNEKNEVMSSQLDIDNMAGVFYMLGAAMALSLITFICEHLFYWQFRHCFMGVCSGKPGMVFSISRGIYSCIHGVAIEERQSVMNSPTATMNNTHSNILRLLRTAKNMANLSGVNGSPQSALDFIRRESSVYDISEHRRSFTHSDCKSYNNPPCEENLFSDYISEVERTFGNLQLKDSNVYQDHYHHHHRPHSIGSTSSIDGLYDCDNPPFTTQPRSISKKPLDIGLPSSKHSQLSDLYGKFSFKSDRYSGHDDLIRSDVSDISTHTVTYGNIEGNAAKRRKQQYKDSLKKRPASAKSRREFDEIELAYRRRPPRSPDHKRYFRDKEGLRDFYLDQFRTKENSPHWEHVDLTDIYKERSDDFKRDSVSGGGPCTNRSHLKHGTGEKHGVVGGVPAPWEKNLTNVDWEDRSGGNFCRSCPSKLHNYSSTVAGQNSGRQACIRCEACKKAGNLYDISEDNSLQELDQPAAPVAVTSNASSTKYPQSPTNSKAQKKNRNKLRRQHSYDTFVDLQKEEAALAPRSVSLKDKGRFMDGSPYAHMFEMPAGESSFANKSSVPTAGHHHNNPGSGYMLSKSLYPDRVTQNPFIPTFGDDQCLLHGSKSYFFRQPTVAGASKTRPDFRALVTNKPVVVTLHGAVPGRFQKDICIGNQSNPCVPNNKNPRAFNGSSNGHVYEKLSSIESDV

Row | Ki [1] [nM] | Structure (SMILES) | further results
1 | 15.1 | O=C1C(N2CCC(c3ccc(O)cn3)CC2)CON1Cc1ccc(F)cc1 (racemic) [Example 3, 2-(4-fluorobenzyl)-4-(4-(5-hydroxypyridin-2-yl)piperidin-1-yl)isoxazolidin-3-one] | 
2 |  | Cc1ccc(CN2OCC(N3CCN(c4ccc(O)cn4)CC3)C2=O)cc1 (single isomer, unassigned) [10,P-1, 4-(4-(5-hydroxypyridin-2-yl)piperazin-1-yl)-2-(4-methylbenzyl)isoxazolidin-3-one] | immobility time (mice): statistically significant decrease in immobility time
3 | 5.49 | Cc1ccc(CN2OCCC(N3CCC(c4ccc(O)cc4)CC3)C2=O)cc1 (racemic) [Example 4, 4-(4-(4-hydroxyphenyl)piperidin-1-yl)-2-(4-methylbenzyl)-1,2-oxazinan-3-one] | 
4 |  | Cc1ccc(CN2OCC(N3CCC(c4ccc(O)cc4)CC3)C2=O)cc1 (single isomer, unassigned) [2,P-2, 4-(4-(4-hydroxyphenyl)piperidin-1-yl)-2-(4-methylbenzyl)isoxazolidin-3-one] | occupancy of brain-resident NR2B-subtype receptors (in words) [2]: occupies brain-resident NR2B-subtype receptors
